How the values were obtained:
[1] = system: ectopic E-MSCs; test: Matrigel transwell invasion assay, ectopic E-MSCs; format: cell-based, human
Description: FIG. 4: Quinagolide effect on EMSCs invasion. A and B: Representative micrographs (A) and quantification (B) of quinagolide effect (100 nM) on eutopic and ectopic (both ovarian and peritoneal) EMSCs invasion (original magnification: ×100). C: Concentration response effect of quinagolide treated ectopic EMSCs invasion. D and E: Quantification (D) and representative micrographs (E) (original magnification: ×100) of invasion assays performed on ectopic EMSCs (both ovarian and peritoneal), treated with 100 nM quinagolide (Q100 nM), 5 μM spiperone(S) or a combination of quinagolide and spiperone (S+Q100 nM). All invasion data are represented as mean±SD of at least three independent experiments, performed on different EMSC lines, and normalized to untreated cells (CTL). One-way ANova was performed: *=p<0.05 and **=p<0.001 vs CTL. Quinagolide powder (provided by Ferring Pharmaceuticals) was stored at 4° C. and resuspended in dimethylsulphoxide (DMSO) to a stock solution of 1 mM immediately before use. Spiperone powder (Sigma-Aldrich) was resuspended in water to a stock concentration of 1 mM and stored at −20° C. Cabergoline powder (Sigma-Aldrich) was dissolved in DMSO to a stock concentration of 25 mM and stored at −20° C. […] Quinagolide, cabergoline, sorafenib and cabozantinib and were administered for 24 hours during co-culture experiments, while spiperone was added to culture medium 1 h before quinagolide treatment. […] E-MSCs were seeded in triplicate in Matrigel-precoated (100 μg Matrigel/transwell) 8-um pore transwells at a concentration of 50,000 cells per well in 200 μl of RPMI 2% FCS with/without quinagolide at the indicated concentration. To test the D2 antagonist effect, E-MSCs were pre-treated with spiperone (5 μM) for 1 h at 37° C. before cell detachment. After 48 hours, invaded E-MSCs on the bottom side of the transwell were fixed with methanol and stained with crystal violet. At least five pictures per transwell were acquired (original magnification: 100×), and the percentage of transwell area covered by invaded EMSCs was quantitatively measured by ImageJ software.

[2] = system: ectopic E-MSCs; test: Endothelial differentiation (CD31) of ectopic E-MSCs in co-culture with HUVECs; format: cell-based, human; conditions: ectopic E-MSCs, 100 nM, 24-h treatment, 48 h co-culture with HUVECs
Description: FIG. 5: Quinagolide effect on EMSCs endothelial differentiation. A. FACS gating-strategy for the analysis of CD31^+ EMSCs after direct 48 h co-culture with HUVECs. EMSCs are gated as GFP negative population, and CD31 expression is evaluated on the described gated EMSCs after 48 h co-culture with HUVECs as percentage of CD31 APC positive events. B, C and D: Representative flow cytometry micrographs and quantification, expressed as percentage of variation respect to control co-culture, of the effect of 24 h treatment of EMSCs with 25 μM cabergoline, 1 μM sorafenib, 1 μM cabozantinib (B), 100 nM quinagolide (C) and the combination of 5 μM spiperone and 100 nM quinagolide (D) on EMSCs CD31 expression after 48 h of co-culture with HUVECs. Data are represented as mean±SD of at least three independent experiments, performed on different ectopic EMSC lines, and normalized to untreated co-culture. One-way ANova was performed: *=p<0.05 and ***=p<0.001 vs control.
(BSA)-Phosphate Buffered Saline (PBS) (Sigma). For each staining, 100,000 cells were incubated for 20 minutes at 4° C. with FITC, APC or PE-conjugated antibodies against: CD29, CD44, CD73, CD90 (BD Bioscences, Franklin Lakes, NJ, USA); CD31, CD34, CD105, CD140b, CD146, TEK receptor tyrosine kinase (Tie2), Sushi domain-containing protein 2 (SUSD2) (Miltenyi Biotech, Bergisch Gladbach, Germany); CD45 (AbD Serotec, Raleigh, NC, USA), or epithelial cell adhesion molecule (EPCAM) (BioLegend, San Diego, CA, USA). Labelled cells were washed by centrifugation and final pellet was resuspended in 200 μl of 0.1% BSA-PBS before cytofluorimetric analysis. Isotype (Miltenyi Biotec) was used as negative control.
Quinagolide powder (provided by Ferring Pharmaceuticals) was stored at 4° C. and resuspended in dimethylsulphoxide (DMSO) to a stock solution of 1 mM immediately before use. Spiperone powder (Sigma-Aldrich) was resuspended in water to a stock concentration of 1 mM and stored at −20° C. Cabergoline powder (Sigma-Aldrich) was dissolved in DMSO to a stock concentration of 25 mM and stored at −20° C. Sorafenib and cabozantinib (Sigma-Aldrich) were resuspended in DMSO to a final concentration of 10 mM and according to the manufacturer's instructions, and stored at −20° C. and −80° C., respectively. Quinagolide, spiperone and cabergoline were diluted 1:100 (final concentration 100 nM), 1:1000 (final concentration 5 μM) and 1:1000 (final concentration 25 μM) respectively. Quinagolide, cabergoline, sorafenib and cabozantinib and were administered for 24 hours during co-culture experiments, while spiperone was added to culture medium 1 h before quinagolide treatment. For invasion assays, E-MSCs were treated with spiperone 1 h before the cell detachment and quinagolide was added only when cells were plated on Matrigel. […]

`CCCN1C[C@@H](NS(=O)(=O)N(CC)CC)C[C@@H]2Cc3c(O)cccc3C[C@H]21` [quinagolide, N,N-diethyl-N′-[(3S,4aS,10aR)-6-hydroxy-1-propyl-1,2,3,4,4a,5,10,10a-octahydrobenzo[g]quinolin-3-yl]sulfamide] was tested, and the “invasion of ectopic E-MSC lines” value ([1]; 100 nM, 48 h, Matrigel, vs untreated) was “significantly reduced”, the “concentration response of invasion reduction” value ([1]; ectopic EMSCs, 48 h (FIG. 4C)) was “dose-dependent” and the “percentage of CD31 expressing E-MSCs after co-culture” value [2] was “significantly reduced”.

From patent US20240361338A1, “DIAGNOSIS AND TREATMENT OF ECTOPIC ENDOMETRIOSIS” (FERRING B.V., priority 2021, published 2024)
